Measured values published in US4895853A, “Antitumor alkaloids” (priority 1986, dated 1990).
Converted amounts (≈) assume the structure as drawn. Like-named read-outs stand apart in the source and are kept apart here.

Tested on: P388 mouse leukemia cells
Assay: P388 mouse leukemia cell assay (growth inhibition, 48 h)
Assay type: cell-based
Conditions: read-out: P388 IC50
Experimental: The following assay method was utilized to illustrate the antitumor effectiveness of the compositions of Formulae I-V corresponding to manzamines B-D of the examples.
P388 mouse leukemia cells are grown in Dulbecco MEM medium with 10% horse serum, 4 mM glutamine, and 20 ug/ml gentamycin (Biologos, Inc.). Cells are incubated in 10% CO2 and subcultured 2 times per week.
1. Add compound to each well of a 24-well plate or tube and allow solvent to evaporate to dryness.
2. Add 2 ml (1.2×10^5) cells to each well or tube and mix.
3. Incubate in 10% CO2 at 37° for 48 hours.
4. Read platees with an inverted microscope, scoring activity from 1+ to 4+ as follows: ND (not detectable), >90%; 1+, 75-90%; 2+, 50-74%; 3+, 25-49%; 4+, <25% of control growth. Cell counts are performed on each tube and results are reported as percent of control. Alternatively, scoring may be expressed as IC50 which represents the minimum concentration of the composition required to inhibit 50% of the cell growth on the plate. […]

Compound | IC50 (Mus musculus, P388, 48 h) | IC50 (P388 mouse leukemia cells, 48 hours at 37°, 10% CO2)
OC12C=C(c3nccc4c3[nH]c3ccccc34)C3CCN(CCCC/C=C\CC1)CC31CC3/C=C\CCCCN3C21 (stereo not shown) [Manzamine A, manzamine A, reference compound] | 0.075 µg/mL (≈ 0.137 µM) | 
C1=C\CCC23CN4CCCC/C=C\CCC5(OC5C(c5nccc6c5[nH]c5ccccc56)C2CC4)C3NCCCC/1 (stereo not shown) [Manzamine B, manzamine B] | 6 µg/mL (≈ 10.9 µM) | 
C1=C\CCCCN(CCc2nccc3c2[nH]c2ccccc23)CCCC/1 [Manzamine C, manzamine C] |  | 3 µg/mL (≈ 8.63 µM)
OC12C=C(C3NCCc4c3[nH]c3ccccc43)C3CCN(CCCC/C=C\CC1)CC31CC3/C=C\CCCCN3C21 (stereo not shown) [Manzamine D, manzamine D] | 0.5 µg/mL (≈ 0.904 µM) | 
